Source: PubChem BioAssay (NCI)
Where “and” joins values, the source holds several entries; their conditions need not be identical. Identical values can stand only once.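 Interpolation was linear, between the two tested concentrations surrounding the appropriate level; five concentrations were tested over 48 hours in 96-well plates. GI50 is the concentration that inhibits growth by half. The concentration for full growth arrest is given as TGI.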

Assays:
Experiment in all cases: NCI anticancer screen, dose series, 48 h
[1] = system: CAKI-1 renal
[2] = system: HL-60(TB) leukemia
[3] = system: OVCAR-8 ovarian
[4] = system: SK-MEL-2 melanoma
[5] = system: HS 578T breast
[6] = system: HOP-92 NSCLC
[7] = system: HCT-15 colon
[8] = system: A498 renal
[9] = system: UACC-62 melanoma
[10] = system: OVCAR-3 ovarian

Structure (SMILES) | GI50 [1] [µM] | TGI [1] [µM] | GI50 [2] | TGI [2] [µM] | GI50 [3] | TGI [3] | GI50 [4] [µM] | TGI [4] [µM] | GI50 [5] [µM] | TGI [5] [µM] | GI50 [6] | TGI [6] | GI50 [7] [µM] | TGI [7] [µM] | GI50 [8] [µM] | TGI [8] [µM] | GI50 [9] [µM] | TGI [9] [µM] | GI50 [10] [µM] | TGI [10] [µM]
Cc1[nH]c2ccccc2c1CO | 14.9 | 42.2 | 15.8 µM | 39 | 31 µM | > 100 µM | 16.7 | 36.6 | 15.6 | 44 | 14.6 µM | 40.9 µM | 18.5 | 93.2 | 17.2 | 56.2 | 17.2 | 37.4 | 5.54 | 19.6
CCOc1ccc(-c2nc3ccc(-c4nc5ccc(N6CCN(C)CC6)cc5[nH]4)cc3[nH]2)cc1 | 0.555 | 2.55 | 1.2 µM and 0.162 µM | 1.23 | 0.162 µM and 0.315 µM | 0.54 µM and 1.25 µM | 1.07 | 2.49 | 0.476 | 2.52 | 0.213 µM and 0.0913 µM | 2.27 µM and 1.52 µM | 1.48 | 7.61 | 0.223 | 1.05 | 0.511 | 1.96 | 0.125 | 0.393
CCOC(=O)Cc1csc(NC(=O)C(OC(=O)c2ccc(Cl)cc2)c2ccccc2)n1 (stereo not given) | 61.9 | > 100 | 9.28 µM | 68.9 | 64.8 µM | > 100 µM | 23.8 | 50.7 | 54.8 | > 100 | 27.2 µM | > 100 µM | 51.6 | > 100 | > 100 | > 100 | 20.3 | 46.5 | 17.8 | 41.9
Cc1ccc(-c2cc(C(=O)Nc3ccc(S(=O)(=O)N4CCCCC4)cc3)[nH]n2)c(O)c1 | > 100 | > 100 | > 100 µM | > 100 | > 100 µM | > 100 µM | > 100 | > 100 | > 100 | > 100 | > 100 µM | > 100 µM | > 100 | > 100 | > 100 | > 100 | > 100 | > 100 | > 100 | > 100
Cn1cnc([N+](=O)[O-])c1S(=O)(=O)Oc1ccc(Cl)cc1 | 1.67 | 3.51 | 1.85 µM | 3.77 | 18.8 µM | 97.1 µM | 18.7 | 61.1 | 19.6 | 68.1 | 1.61 µM | 3.37 µM | 1.64 | 3.47 | 17 | 42.5 | 13.2 | 29.1 | 1.86 | 3.42
COc1cc(CSc2nc3ccc(Cl)cc3c(=O)n2Cc2ccccc2)cc(OC)c1OC | 3.19 | > 100 | 4.11 µM | > 100 | 5.18 µM | > 100 µM | 6.57 | 59.4 | 1.63 | 14.5 | 1.93 µM | 9.16 µM | 1.46 | > 100 | 1.89 | 8.2 | 2.34 | 25.2 | 3.2 | 11.6
OCc1ccc(-c2nc(-c3ccc4c(c3)OCO4)c(-c3ccccn3)[nH]2)cc1 | 11.4 | > 25 | > 25 µM | > 25 | > 25 µM | > 25 µM | > 25 | > 25 | > 25 | > 25 | > 12.9 µM | > 25 µM | 15.1 | > 25 | > 25 | > 25 | > 25 | > 25 | > 25 | > 25
Oc1ccc(N=Nc2ccc(Br)cc2)c(O)c1 | 4 | 21 | 1.71 µM | 4.53 | 3.69 µM | 21.2 µM | 2.64 | 12 | 2.2 | 6.77 | 1.1 µM | 6.96 µM | 3.42 | 19.4 | 3.26 | 20.7 | 3.01 | 20.8 | 3.2 | 14.7
CCOC(=O)c1c(NN2CCN(CC(F)(F)F)CC2)oc(/C=C2\C=Nc3ncccc32)c1O | 1.08 | 13.5 | 1.85 µM | 4.67 | 4.14 µM | 20.6 µM | 2.25 | 4.8 | 0.913 | 6.72 | 12.9 µM | 40.9 µM | 6.59 | 46.7 | 3.62 | 9.62 | 4.83 | 15.1 | 4.06 | 19.4
Nc1nc(-c2cccnc2)cc(-c2cc(-c3cccnc3)nc(N)n2)n1 |  | > 100 |  | > 100 |  | > 100 µM |  | > 100 |  | > 100 |  | > 100 µM |  | > 100 |  | > 100 |  | > 100 |  | > 100
COc1cccc2c1C(=O)c1c(O)c3c(c(O)c1C2=O)C[C@](O)(C(=O)CO)C[C@H]3O[C@@H]1C[C@@H](NC(=O)CCCN(C)C2(c3ccc(F)cc3)CC3CCC2C3)[C@H](O)[C@@H](C)O1 (stereo not given in full) | 7.16 | 14.5 | 1.17 µM | 3.01 | 0.913 µM | 2.36 µM | 1.06 | 2.15 | 6.78 | 20.9 | 3.62 µM | 11.1 µM | 0.971 | 2.25 | 5.31 | 12.5 | 0.889 | 1.92 | 0.852 | 1.71
CCc1cc2c(c(OCC(F)(F)F)c(C(=O)NC3CCN(C(=O)CO)CC3)n2C)c(=O)n1CC(=O)c1ccccc1 | > 60.3 | > 100 | 59.3 µM | > 100 | 45.5 µM | > 100 µM | 56.1 | > 100 | 34.4 | > 100 | > 62.4 µM | > 100 µM | 52.3 | > 100 | 99.3 | > 100 | 57.8 | > 100 | > 100 | > 100
CCCCCCOC(=O)CC1=C(C)/C(=C/c2[nH]c(-c3ccc[nH]3)cc2OC)N=C1C | 0.0706 | 1.12 | 0.385 µM | 1.76 | 0.238 µM | 1.21 µM | 0.0532 | 0.23 | 0.133 | 1.17 | 0.0332 µM | 0.351 µM | 0.0315 | 1.14 | 0.321 | 1.33 |  |  | 0.168 | 1.15
CCn1nc(C2CCN(C(=O)CCO)CC2)nc1-c1cnc(N)c(-c2nnc(C(C)(C)C)o2)n1 | 3.35 | > 96.6 | 0.263 µM | 97.5 | 38.2 µM | > 100 µM | 30.9 | > 100 | 0.836 | 57 | 0.208 µM | > 100 µM | 6.17 | > 100 | 0.617 | 5.12 | 2.07 | > 100 | 7.81 | 38.4
Cc1cccc2c(=O)c3c(sc12)c(NCCCNCCO)nc1ccccc13 | 1.31 | 2.67 | 1.82 µM | 3.49 | 1.71 µM | 3.37 µM | 1.75 | 3.34 | 1.63 | 3.62 | 1.21 µM | 3.24 µM | 1.51 | 2.96 | 1.3 | 2.83 | 1.67 | 3.17 | 1.74 | 3.26
O=c1[nH]c(-c2ccc(Cl)c(Cl)c2)cn1-c1ccc(Cl)cc1 | 25.4 | 49 | 34.1 µM | > 100 | 34.7 µM | > 100 µM | 24.4 | 64.6 | 17.2 | 51.8 | 15.9 µM | 46.3 µM | > 100 | > 100 | 22.2 | 47.6 | 26.2 | 78.3 | 27.7 | 59
CCCCCSc1ccc2nc(NC(=O)OCC)sc2c1 | 0.626 | > 100 | 0.351 µM | > 100 | 4.85 µM | > 100 µM | 0.431 | 25.3 | 0.944 | > 100 | 1.44 µM | 67.8 µM | 0.384 | > 100 | 1.22 | 7.88 |  |  | 0.346 | 2.14
COc1ccc(C(=O)/C=C/c2cc(-c3ccc(OC)c(OC)c3)n[nH]2)cc1OC |  |  | 2.76 µM | > 100 | 2.63 µM | 22.4 µM | 2.46 | 5.17 | 3.76 | > 100 | 1.97 µM | 8.12 µM | 1.09 | 5.39 | 1.27 | 3.2 |  |  | 1.96 | 4.72
O=C1OC2(c3ccc(O)cc3Oc3cc(O)ccc32)c2cccc3cccc1c23 | 24.6 | > 100 | 30.6 µM | 81.6 | 17.4 µM | 36.9 µM | 21.4 | 48 | 22.2 | > 100 | 19 µM | 97.6 µM | 19.2 | 52.6 | 24.8 | 70.1 | 17.3 | 42.5 |  | 
